We go through two compounds from paper PMC2359919, “Molecular targeting of retinoic acid metabolism in neuroblastoma: the role of the CYP26 inhibitor R116010 in vitro and in vivo” (British Journal of Cancer, 2007).

In this experiment the test system is CYP26B1. As to the kind of experiment: CYP26B1 mRNA expression in neuroblastoma cells, real-time PCR. It counts as cell-based, human. As to conditions: 24 h. The protocol:
SH-SY5Y, SH-EP (N- and S-type cells respectively derived from the parental line SK-N-SH), LAN6, IMR-32, NGP and GIMEN neuroblastoma cell lines were cultured routinely in RPMI 1640 medium containing fetal calf serum (10%) and L-glutamine (2 mM). Cells were grown at 37°C in a humidified incubator containing 5% CO2.
13-cis-Retinoic acid and ATRA were dissolved in DMSO and diluted in cell culture medium to obtain final concentrations of 0.1–10 μM. The final concentration of DMSO in all cases was <0.2%. All experiments were performed in dim light and tubes containing retinoids were wrapped in aluminium foil.
CYP26 short hairpin RNAs (shRNAs) were generated using the siSTRIKE U6 Hairpin Cloning System (Promega, Southampton, UK). The CYP26A1, B1 and Ctrl siRNA sequences were designed using Promega software. The cDNA target sequences were CYP26A1 5′-gcgcatcgagcagaacatt; CYP26B1 5′-gtcgcggagggagaagtat; and Ctrl 5′-gccccgcaattgagaaatg. Sense and antisense strands were annealed and ligated into the linearised psiSTRIKE Neomycin Vector. SH-SY5Y cells were transfected with psi-CYP26A1 or psi-CYP26B1 either singly or in combination, or with psi-Ctrl, in six-well plates (1 μg each) or 75 cm^2 flasks (8.9 μg each) using FuGENE 6 reagent (Roche, Lewes, UK) according to the manufacturer's instructions. After a 6 h transfection, cells were treated with ATRA for 40 h and harvested for RNA isolation and HPLC analysis.
RNA was reverse-transcribed using Promega's Reverse Transcription System according to the manufacturer's instructions, using random hexamer primers. […] As internal standard, β-actin was measured simultaneously using the endogenous control assay provided by Applied Biosystems. […] Standard curves were generated from serial dilutions of cDNA prepared from cells treated with ATRA (1 μM) and the data were analysed using the GeneAmp Sequence Detection System software. CYP26C1 expression was analysed as described previously ([Taimi et al, 2004]).
On the technique in general: Real-time PCR tracks product formation cycle by cycle.

With `C[C@@H]([C@H](c1ccc(Nc2nc3ccccc3s2)cc1)n1ccnc1)N(C)C` [R116010], the “Effect on CYP26B1 expression, R116010 alone” value (SH-SY5Y cells, R116010 1 μM alone) is on record as “no effect”. For the same compound, the “Effect on CYP26B1 expression, co-incubation with retinoid” value (SH-SY5Y cells, R116010 1 μM with ATRA or 13cisRA (0.01, 0.1 μM) vs retinoid alone) was “significantly increased”.
For `CC1=C(/C=C/C(C)=C/C=C/C(C)=C/C(=O)O)C(C)(C)CCC1` [ATRA, all-trans-retinoic acid], the CYP26B1 induction entry (0.1 μM retinoid, panel of neuroblastoma cell lines, relative to SH-SY5Y cells treated with 0.01 μM ATRA) is recorded as “induced in all cell lines examined, except IMR-32”.
